Test results reported in patent US10052385B2, “Formulations of bendamustine” (Eagle Pharmaceuticals, Inc., priority 2012, dated 2018).
Structures can show the parent of a compound that is named as a salt. Where two headings read alike, the source gives them in different places.

Assay: Solubility of bendamustine HCl in 0.9% saline with non-aqueous solubilizer (Example 1)
Format: physicochemical
Settings: for solubility at 30 min: 22.5 °C; for solubility at 30 min / solubility at 24 h: thermodynamic from solid; for solubility at 24 h: 5 °C
Protocol: Essentially, an excess of bendamustine HCl was added to solvents comprising of various volume percent of the non-aqueous solubilizer in 0.9% saline, and allowed to equilibrate with shaking for 30 minutes at room temperature, or for 24 hours at refrigerated temperature. At the end of the equilibration step, the suspensions were filtered through a 0.2 micron filter to remove undissolved bendamustine, and the filtrate solutions analyzed for bendamustine HCl content using a HPLC assay; quantification was performed against a bendamustine HCl reference standard.

Structure (SMILES): Cn1c(CCCC(=O)O)nc2cc(N(CCCl)CCCl)ccc21 [bendamustine HCl]
- solubility at 30 min (0.9% saline with 5 mg/ml monothioglycerol, saline or isotonic, Room temperature, API Source B, solvent also contained 5 mg/ml monothioglycerol, 100.0% Normal Saline, 0.0% Non-aqueous Solubilizer, read-out: Solubility of bendamustine HCl): ~3300 µg/mL
- solubility at 24 h (0.9% saline, saline or isotonic, 5° C., API Source A, 100.0% Normal Saline, 0.0% Non-aqueous Solubilizer (90:10 PEG 400/PG), read-out: Solubility of bendamustine HCl): 1180 µg/mL
- solubility at 30 min (0.9% saline, saline or isotonic, Room temperature, API Source A, 100.0% Normal Saline, 0.0% Non-aqueous Solubilizer (90:10 PEG 400/PG), read-out: Solubility of bendamustine HCl): 3460 µg/mL
- solubility at 24 h (aqueous with cosolvent or surfactant or cyclodextrin, 5° C., API Source A, 80.0% Normal Saline, 20.0% Non-aqueous Solubilizer (90:10 PEG 400/PG), read-out: Solubility of bendamustine HCl): 3820 µg/mL
- solubility at 24 h (aqueous with cosolvent or surfactant or cyclodextrin, 5° C., API Source A, 82.5% Normal Saline, 17.5% Non-aqueous Solubilizer (90:10 PEG 400/PG), read-out: Solubility of bendamustine HCl): 3330 µg/mL
- solubility at 24 h (aqueous with cosolvent or surfactant or cyclodextrin, 5° C., API Source A, 85.0% Normal Saline, […] Non-aqueous Solubilizer (90:10 PEG 400/PG), read-out: Solubility of bendamustine HCl): 2900 µg/mL
- solubility at 24 h (aqueous with cosolvent or surfactant or cyclodextrin, 5° C., API Source A, 90.0% Normal Saline, 10.0% Non-aqueous Solubilizer (90:10 PEG 400/PG), read-out: Solubility of bendamustine HCl): 2430 µg/mL
- solubility at 24 h (aqueous with cosolvent or surfactant or cyclodextrin, 5° C., API Source A, 95.0% Normal Saline, 5.0% Non-aqueous Solubilizer (90:10 PEG 400/PG), read-out: Solubility of bendamustine HCl): 2020 µg/mL
- solubility at 24 h (aqueous with cosolvent or surfactant or cyclodextrin, refrigerated, 19.4% of the non-aqueous component in the final 100 ml admixture, read-out: solubility of bendamustine HCl in final admixture): ~3800 µg/mL
- solubility at 30 min (aqueous with cosolvent or surfactant or cyclodextrin, Room temperature, API Source A, 70.0% Normal Saline, 30.0% Non-aqueous Solubilizer (90:10 PEG 400/PG), read-out: Solubility of bendamustine HCl): 12000 µg/mL
- solubility at 30 min (aqueous with cosolvent or surfactant or cyclodextrin, Room temperature, API Source A, 80.0% Normal Saline, 20.0% Non-aqueous Solubilizer (90:10 PEG 400/PG), read-out: Solubility of bendamustine HCl): 8640 µg/mL
- solubility at 30 min (aqueous with cosolvent or surfactant or cyclodextrin, Room temperature, API Source A, 85.0% Normal Saline, […] Non-aqueous Solubilizer (90:10 PEG 400/PG), read-out: Solubility of bendamustine HCl): 7010 µg/mL
- solubility at 30 min (aqueous with cosolvent or surfactant or cyclodextrin, Room temperature, API Source A, 90.0% Normal Saline, 10.0% Non-aqueous Solubilizer (90:10 PEG 400/PG), read-out: Solubility of bendamustine HCl): 5630 µg/mL
- solubility at 30 min (aqueous with cosolvent or surfactant or cyclodextrin, Room temperature, API Source A, 95.0% Normal Saline, 5.0% Non-aqueous Solubilizer (90:10 PEG 400/PG), read-out: Solubility of bendamustine HCl): 4430 µg/mL
- solubility at 30 min (aqueous with cosolvent or surfactant or cyclodextrin, room temperature, 16.1% of the non-aqueous component in the final 50 ml admixture, read-out: room temperature solubility of bendamustine HCl in final admixture): ~6500 µg/mL
- solubility at 30 min (saline or isotonic, Room temperature, API Source A, 97.5% Normal Saline, 2.5% Non-aqueous Solubilizer (90:10 PEG 400/PG), read-out: Solubility of bendamustine HCl): 3990 µg/mL
- solubility at 30 min (saline or isotonic, Room temperature, API Source B, solvent also contained 5 mg/ml monothioglycerol, 97.5% Normal Saline, 2.5% Non-aqueous Solubilizer, read-out: Solubility of bendamustine HCl): 3890 µg/mL
- Solubility of bendamustine HCl (Room temperature, API Source B, solvent also contained 5 mg/ml monothioglycerol, 70.0% Normal Saline, 30.0% Non-aqueous Solubilizer): 11407 µg/mL
- Solubility of bendamustine HCl (Room temperature, API Source B, solvent also contained 5 mg/ml monothioglycerol, 80.0% Normal Saline, 20.0% Non-aqueous Solubilizer, HCl): 8492 µg/mL
- Solubility of bendamustine HCl (Room temperature, API Source B, solvent also contained 5 mg/ml monothioglycerol, 82.5% Normal Saline, 17.5% Non-aqueous Solubilizer): 7641 µg/mL
- Solubility of bendamustine HCl (Room temperature, API Source B, solvent also contained 5 mg/ml monothioglycerol, 85.0% Normal Saline, […] Non-aqueous Solubilizer): 6554 µg/mL
- Solubility of bendamustine HCl (Room temperature, API Source B, solvent also contained 5 mg/ml monothioglycerol, 87.5% Normal Saline, 12.5% Non-aqueous Solubilizer): 5825 µg/mL
- Solubility of bendamustine HCl (Room temperature, API Source B, solvent also contained 5 mg/ml monothioglycerol, 90.0% Normal Saline, 10.0% Non-aqueous Solubilizer): 5351 µg/mL
- Solubility of bendamustine HCl (Room temperature, API Source B, solvent also contained 5 mg/ml monothioglycerol, 92.5% Normal Saline, 7.5% Non-aqueous Solubilizer): 4742 µg/mL
- Solubility of bendamustine HCl (Room temperature, API Source B, solvent also contained 5 mg/ml monothioglycerol, 95.0% Normal Saline, 5.0% Non-aqueous Solubilizer): 4204 µg/mL
